Test results: US20060024691A1, “Novel pathways in the etiology of cancer” (Buck Institute for Age Research, priority 2004, published 2006)
“Also recorded” adds a separate entry of the source. Read-outs that look alike come from different tables or passages of the source.

Key:
Assay type in all cases: cell-based, human
[1] = test system: ERα Ser-118 (67 kD ERα and 52 kD ERα variant); details: for Ser-118 phosphorylation of ER induced by treatment: MCF-7/T47D cells, charcoal-stripped media, 30 min, menadione 100 μM, estradiol 10 nM, other quinones at equitoxic doses
Protocol: (§1) Human breast cancer cell lines MCF7 and T47D were obtained from the American Type Culture Collection (ATCC). MCF7 cells were maintained in Dulbecco's Modification of Eagle's Medium (Cellgro) supplemented with 10% fetal bovine serum (Cellgro), 1% penicillin/streptomycin (Cellgro) and 10 μg/ml insulin (Sigma). T47D cells were maintained in RPMI (Cellgro) supplemented with 10% fetal bovine serum, 1% penicillin/streptomycin and 10 μg/ml insulin. Treatment conditions for both cell lines involved plating ˜1×10^6 cells in normal media onto 10 cm dishes, attachment and growth for 24 hours followed by a change to estrogen-free culture conditions (phenol red-free DME H-16 supplemented with 10% charcoal stripped serum, 1% penicillin/streptomycin and 10 μg/ml insulin) for an additional 24 hours. Cells were then treated as indicated for 30 minutes before extract preparation. Indicated conditions involved 30 minute pretreatments.
(§2) Following aspiration of the media and one ice cold PBS wash, cells growing on 10 cm dishes were harvested using a cell scraper and 0.7 ml of ice cold cell lyses buffer ([…], 1.5 mM MgCl2, […] KCl, 1 mM DTT, […] NaFl, 5% glycerol, 0.45% NP40 (Igepal, Sigma) and mincomplete protease inhibitors (Roche)). […] For preparation of high-salt nuclear extracts (nucleoplasm), isolated nuclei were resuspended for 20 minutes in ice cold extraction buffer (0.4 M NaCl, 25 mM Tris pH 7.5, 1 mM DTT, 20% glycerol, 10 mM NaFl and min-complete protease inhibitors (Roche)) followed by a 4° C. centrifugation at 16,000×g for 15 minutes.
(§3) Equal amounts of protein from the various extracts were mixed with 2× SDS sample buffer (125 mM Tris pH6.8, 20% glycerol, 2% SDS, 0.28 M 2-mercaptoethanol and0.5% Bromphenol Blue), heated for 5 minutes at 90° C. and electrophoresed on NuPAGE 4-12% Bis-Tris gels (Invitrogen) using NuPAGE MOPS SDS running buffer (Invitrogen) and full range Rainbow recombinant protein molecular weight markers (Amersham Pharmacia). […] Membranes were then blocked for 30 minutes in blocking buffer (150 mM NaCl, 20 mM Tris pH 7.5, 0.3% Tween-20 and 4% Nonfat dry milk powerby weight).

[2] = test system: ERα Ser-167 (67 kD ERα and 52 kD ERα variant); details: MCF7 nuclear extracts, 30 min
Protocol: as §1, §2, §3

ERK1/ERK2 = test: MAPK activation: ERK1/ERK2 phosphorylation, Western blot; details: MCF7 cells, 30 minutes
Protocol: as §1
For preparation of high-salt nuclear extracts (nucleoplasm), isolated nuclei were resuspended for 20 minutes in ice cold extraction buffer (0.4 M NaCl, 25 mM Tris pH 7.5, 1 mM DTT, 20% glycerol, 10 mM NaFl and min-complete protease inhibitors (Roche)) followed by a 4° C. centrifugation at 16,000×g for 15 minutes.
Membranes were then blocked for 30 minutes in blocking buffer (150 mM NaCl, 20 mM Tris pH 7.5, 0.3% Tween-20 and 4% Nonfat dry milk powerby weight).

NF-κB p50 = test: Nuclear translocation of NF-κB p50 in MCF-7 cultures; details: 10 μM, 30 min
NFκB = NFκB DNA-binding by EMSA, nuclear extracts of menadione treated MCF-7 cells; details: MCF-7, menadione 100 μM × 30 min
Protocol: PS-341 was kindly provided by Millennium Pharmaceuticals Inc. (Cambridge, Mass.). […] For assessment of combined treatment effects on cell viability, 2×10^4 cells (MCF-7, MCF-7/HER2, BT474) grown in 24-well plates were first treated with tamoxifen (dissolved in ethanol) and/or parthenolide (dissolved in DMSO); for the combination treatment pathenolide was added 4 h before addition of tamoxifen. Cell viability was measured 18 h after tamoxifen treatment using the sulforhodamine B (SRB) assay (Skehan, et al. 1990). Briefly, cells fixed with trichloroacetic acid were stained for 30 min with 0.4% SRB dissolved in 1% acetic acid. Unbound dye was removed by four washes with 1% acetic acid, and protein-bound dye was extracted with 10 mM unbuffered Tris base [tris(hydroxymethyl)aminomethane] for determination of optical density at 564 nm.
Fractionation of control and treated cells into cytoplasmic and nuclear extracts was performed as previously described (Dignam et al., 1983), with minor modification. Cells harvested on ice were washed twice with cold PBS, scraped and resuspended in 1.0 ml hypotonic buffer (20 mM HEPES, pH 7.0; 10 mM KCl; 1 mM MgCl2; 0.1% Triton X-100; 20% glycerol; 0.5 mM DTT) containing a cocktail of protease inhibitors (Mini CompleteTM protease inhibitors, Roche Diagnostics, Mannheim, Germany). The harvested cells were Dounce homogenized on ice, the mixture centrifuged at 3,000 rpm at 4° C. (5 min), and the cytoplasmic fraction separated from the nuclear pellet which was resuspended in elution buffer (20 mM HEPES, pH 7.0; 10 mM KCl; 1 mM MgCl2; 0.42 M NaCl; 0.1% Triton X-100; 20% glycerol; 0.5 mM DTT), supplemented with protease inhibitors. After 20 min at 4° C. the buffered mixture was centrifuged at 14,000 rpm at 4° C. (10 min) to obtain solubilized nuclear extracts which were then stored in aliquots at −80° C. after protein determination (Bradford; BioRad, Hercules, Calif.) and for subsequent NFkB DNA-binding assays.
NFκB DNA-binding activity was measured by two different techniques. Analogous to previous tumor extract scoring of Sp1 DNA-binding protein (Quong et al., 2002), total specific NFκB DNA-binding protein was determined by electrophoretic morbility shift assay (EMSA) as follows. A duplexed oligonucleotide probe (Promega, Madison, Wis.) with sense strand containing the decameric κB consensus binding sequence (underlined) 5′-[…]-3′(SEQ ID NO:4) was end-labeled with [γ-P32]ATP (PerkinElmer, Boston, Mass.) using T4 polynucleotide kinase (Promega, Madison, Wis.) and purified with G-50 Sephadex Bio-Spin columns (BioRad, Hercules, Calif.). […]

CC1=CC(=O)c2ccccc2C1=O [menadione, 2-methyl-1,4-naphthoquinone]
Ser-118 phosphorylation of ER induced by treatment [1]: induced Ser-118 phosphorylation | Ser-118 phosphorylation of ER induced by treatment ([1]; listed as K3): contained both 67 kD and 52 kD p-Ser-118 ERα | ER isoform activation on longer exposure ([1]; menadione exposures 4-6 hr): further enhanced activation of the ˜52 kDa delta7 ER isoform while diminishing that of 67 kDa ER | Ser-167 phosphorylation of ERα induced by treatment [2]: Ser-167 phosphorylation only on the 52 kD ERα nuclear variant | ERK1/ERK2 phosphorylation induced by treatment (ERK1/ERK2): high level of ERK1/ERK2 phosphorylation | increase in nuclear translocation of NF-κB p50 vs control treated cells (NF-κB p50): > 3 fold | NFκB activation after menadione treatment (EMSA) (NFκB): increase in MCF-7 NFκB activation; also recorded: significantly increase MCF-7 NFκB activity
